Converted amounts (≈) assume the structure as drawn.
How the values were obtained:
[1] = test system: RWPE-1; experiment: Cytotoxicity against human RWPE-1 cells assessed as cell viability at 50 ug/ml after 72 hrs by MTT assay; format: toxicity, cell-based; conditions: rwpe-1, 72 h, dose 50 µg/ml
[2] = test system: Mycobacterium tuberculosis; experiment: Antitubercular activity against Mycobacterium tuberculosis H37Rv; format: functional
[3] = test system: Mycolicibacterium smegmatis; experiment: Antitubercular activity against Mycobacterium smegmatis ATCC 700084 after 48 hrs by microdilution assay; format: functional

Compound | Activity [1] | MIC [2] [µg/mL] | MIC [3] [µg/mL]
Nc1ccc2oc3ccccc3c2c1 | Toxic | 64 (≈ 349 µM) | 3.13 (≈ 17.1 µM)
Nc1ccc2[nH]ccc2c1 |  |  | > 100
Nc1ccc2c(c1)-c1ccccc1S2(=O)=O |  |  | > 100
CCCCCCNc1ccc2sc3ccccc3c2c1 |  |  | > 100
c1ccc2c(c1)sc1ccc(N3CCOCC3)cc12 |  |  | > 100
Nc1ccc2sc3ccccc3c2c1 | Toxic | 128 (≈ 642 µM) | 3.13 (≈ 15.7 µM)
c1ccc2c(c1)CCN2c1ccc2sc3ccccc3c2c1 |  |  | > 100
O=S(=O)(Nc1ccc2sc3ccccc3c2c1)c1ccccc1 |  |  | > 100
Nc1ccc2ccsc2c1 | Toxic |  | 0.78 (≈ 5.23 µM)
Nc1ccc2[nH]c3ccccc3c2c1 |  | 16 (≈ 87.8 µM) | > 100
c1ccc2c(c1)CCCN2c1ccc2sc3ccccc3c2c1 |  |  | > 100
CCNc1ccc2sc3ccccc3c2c1 |  |  | > 100
Nc1ccc2sccc2c1 | Toxic |  | 0.78 (≈ 5.23 µM)
Nc1ccc2occc2c1 | Toxic |  | 1.56 (≈ 11.7 µM)
CN(c1ccccc1)c1ccc2sc3ccccc3c2c1 |  |  | > 100
Nc1ccc2c(c1)-c1cc(N)ccc1S2(=O)=O |  | < 2 | > 100
c1ccc(Nc2ccc3sc4ccccc4c3c2)cc1 |  |  | > 100
Nc1cccc2c1sc1ccccc12 |  |  | 12.5 (≈ 62.7 µM)
OB(O)c1ccc2sc3ccccc3c2c1 |  |  | 50 (≈ 219 µM)
CCN(CC)c1ccc2sc3ccccc3c2c1 |  |  | > 100
c1ccc2c(c1)sc1ccc(N3CCCC3)cc12 |  |  | > 100
Nc1cccc2sccc12 |  |  | 50 (≈ 335 µM)
OB(O)c1cccc2c1sc1ccccc12 |  |  | > 100
c1ccc2c(c1)sc1ccc(NC3CCCCC3)cc12 |  |  | > 100
c1ccc2c(c1)sc1ccc(-n3cccc3)cc12 |  |  | > 100
Nc1ccc2c(c1)-c1ccccc1C2 |  | 32 (≈ 177 µM) | 25 (≈ 138 µM)
Nc1ccc2sc3ccc(N)cc3c2c1 |  |  | > 100
NNC(=O)c1ccncc1 [ISONIAZID] |  |  | 3.13 (≈ 22.8 µM)

Reference: ChEMBL document CHEMBL5143614, “Structure-activity relationship of 2-aminodibenzothiophene pharmacophore and the discovery of aminobenzothiophenes as potent inhibitors of Mycobacterium smegmatis” (Bioorg Med Chem Lett, 2022)
